# Results: patent US20140147527A1, “COMPOSITIONS AND METHODS FOR TREATING EMOTIONAL-PSYCHOLOGICAL STRESS” (TSUKUBA UNIVERSITY, priority 2012, published 2014)
# Tested on: SH-SY5Y cells
# Experiment: Cell viability assay (MTT) in SH-SY5Y cells
# Assay type: cell-based, human
# Settings: H2O2 0, 50, 100, 150, 200 or 250 μM, 24 hours
# Method: To determine the concentration of C. schoenanthus ethanol extracts which can be used to investigate their anti-stress effect, SH-SY5Y cells were cultured with several concentrations (1/100, 1/1000, or 1/10000 v/v dilution of C. schoenanthus ethanol extract in culturing medium) for 72 hours.
# SH-SY5Y cells were treated with different concentrations of C. schoenanthus extract (at a 1/500, 1/750, 1/1000, 1/1500, or 1/2000 v/v dilution in medium) for 72 hours and cell viability was determined by MTT assay.
# To evaluate whether H2O2 influences neuronal cytotoxicity, SH-SY5Y cells were treated with various concentrations of H2O2 (0, 50, 100, 150, 200, or 250 μM) for 24 hours.
# A cell survival analysis was performed using 3-(4,5-Dimethylthiazol-2-yl)-2,5-diphenyltetrazolium bromide (MTT), which was dissolved in PBS to a final concentration of 5 mg/ml. […] Then, 100 μl of 10% of sodium dodecyl sulfate (SDS) was added and after overnight incubation, the absorbance was determined at 570 nm. The control wells which contained cultured cells with medium only were considered as 100% cell viability.
smiles,measurement,value
OO [H2O2],cytotoxicity in SH-SY5Y cells,dose-dependent cytotoxicity
